# In patent publication US20110166135A1, “AROMATIC NITROGEN-CONTAINING 6-MEMBERED RING COMPOUNDS AND THEIR USE” (priority 2008, published 2011):
# Test system: not given
# Experiment: not given
# Conditions: not given
row,melting point [°C],SMILES
1,199 to 201,"COc1ccc(-c2cc(N3CCC(O)C3)nc(/C=C/c3nc(N(C)C)c4ccccc4n3)n2)cc1OC (stereo not shown) [Example 1.007, 1-(6-(3,4-dimethoxyphenyl)-2-{(E)-2-[4-(dimethylamino)quinazolin-2-yl]vinyl}pyrimidin-4-yl)pyrrolidin-3-ol]"
2,126 to 131,"COc1ccc(-c2cc(N3CCC(NC(=O)CN(C)C)C3)nc(/C=C/c3nc(N(C)C)c4ccccc4n3)n2)cc1OC (stereo not shown) [Example 1.104, N^1-[1-(6-(3,4-dimethoxyphenyl)-2-{(E)-2-[4-(dimethylamino)quinazolin-2-yl]vinyl}pyrimidin-4-yl)pyrrolidin-3-yl]-N^2,N^2-dimethylglycine amide]"
3,177 to 180,COc1ccc(-c2cc(N3CCN(C)CC3)nc(/C=C/c3nc(-n4ccnc4)c4ccccc4n3)n2)cc1OC [Example 1.010]
4,103 to 108,COc1ccc(-c2cc(N3CCn4ccnc4C3)nc(/C=C/c3nc(N(C)C)c4ccccc4n3)n2)cc1OC [Example 1.008]

# Biological target: T1, PDE10 (PDE10A) (Bos taurus, UniProt A0A3Q1MHJ4)
# T1 construct: isolated and prepared from bovine corpus striatum; from tissue; host or cells: bovine corpus striatum
# T1 sequence (A0A3Q1MHJ4 1-1068): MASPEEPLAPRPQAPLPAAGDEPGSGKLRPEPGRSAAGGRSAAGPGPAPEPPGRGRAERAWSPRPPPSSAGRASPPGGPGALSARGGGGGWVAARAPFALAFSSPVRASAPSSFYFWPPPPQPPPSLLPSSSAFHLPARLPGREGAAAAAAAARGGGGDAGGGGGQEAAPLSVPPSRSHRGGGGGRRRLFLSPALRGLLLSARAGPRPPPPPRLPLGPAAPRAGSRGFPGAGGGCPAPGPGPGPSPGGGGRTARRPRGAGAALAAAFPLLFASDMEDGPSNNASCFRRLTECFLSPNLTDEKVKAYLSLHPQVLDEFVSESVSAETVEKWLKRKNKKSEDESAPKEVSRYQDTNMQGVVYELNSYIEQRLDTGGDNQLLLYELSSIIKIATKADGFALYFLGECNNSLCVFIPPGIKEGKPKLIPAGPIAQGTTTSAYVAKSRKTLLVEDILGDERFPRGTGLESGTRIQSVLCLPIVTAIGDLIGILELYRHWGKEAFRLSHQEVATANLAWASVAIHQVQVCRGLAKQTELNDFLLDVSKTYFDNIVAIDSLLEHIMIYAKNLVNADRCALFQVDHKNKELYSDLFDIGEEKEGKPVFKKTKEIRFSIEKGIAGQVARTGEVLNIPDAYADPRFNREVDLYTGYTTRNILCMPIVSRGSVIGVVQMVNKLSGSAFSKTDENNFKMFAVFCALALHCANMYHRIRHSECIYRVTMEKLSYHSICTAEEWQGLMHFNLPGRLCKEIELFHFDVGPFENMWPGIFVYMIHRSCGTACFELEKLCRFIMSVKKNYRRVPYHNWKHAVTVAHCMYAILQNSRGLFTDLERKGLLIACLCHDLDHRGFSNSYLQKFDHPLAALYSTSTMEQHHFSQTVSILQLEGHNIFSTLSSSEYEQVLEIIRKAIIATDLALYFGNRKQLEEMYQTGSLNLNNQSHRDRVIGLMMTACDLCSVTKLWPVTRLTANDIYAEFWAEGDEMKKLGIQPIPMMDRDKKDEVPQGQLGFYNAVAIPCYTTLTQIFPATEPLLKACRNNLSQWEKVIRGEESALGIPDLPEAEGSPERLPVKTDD
# Experiment: Measurement of PDE10 inhibitory activity (radiolabeled nucleotide PDE assay, Method-A or Method-B)
# Type: biochemical
# Conditions: Method-A: [3H]-cAMP substrate, 37° C., 30 minutes, enzyme from bovine corpus striatum
# Procedure: (1) The enzyme PDE10 (PDE10A) was isolated and prepared from bovine corpus striatum, according to the methods described in references Fujishige et al., Eur. J. Biochem., vol. 266, pp. 1118-1127, 1999. The enzyme solution obtained was used for a PDE assay.
# The PDE assay was performed according to the method described in Kotera et al. (Kotera et al., Biochem. Pharmacol., vol. 60, pp. 1333-1341, 2000), by the radiolabeled nucleotide method.
# Specifically, the measurements of the inhibitory activities were carried out in one of the following methods.
# (Method-A) The enzymatic reaction was carried out in 500 μl of assay buffer [50 mM Tris-HCl, pH8.0, 5 mM MgCl2, 4 mM 2-mercaptoethanol, 0.33 mg/ml bovine serum albumin] containing as a substrate about 4.8 nM [^3H]-cAMP+0.25 μM unlabeled cAMP (available from Amersham Biosciences) or about 9.6 nM [^3H]-cAMP.
# The reaction was carried out for 30 minutes while keeping the temperature at 37° C. It was stopped by boiling the reaction mixture for 1.5 minutes, and further added thereto was 100 μl of snake venom (Crotalus atrox snake venom 1 mg/ml) and the temperature was kept at 37° C. for 30 minutes. Then 500 μl of methanol was added, and the reaction mixture was applied to a Dowex column (1×8 200-400). Subsequently, scintillation cocktail was added to each aliquot of the eluant, and the radioactivity was measured in a scintillation counter. Thus, PDE activity taking cAMP as a substrate (an activity to hydrolyze cAMP) was measured.
# In the measurements of the inhibitory activities of compounds, a test compound was added to the above-mentioned reaction mixture, in various concentrations, and PDE activity was measured in the presence or absence of the test compound. From the measurements, its PDE10 (PDE10A) inhibitory activity was determined.
# (Method-B) The test compounds were dissolved in dimethyl sulfoxide (DMSO). 2 μL of the compound solution was added to 96 well plate, and the reaction mixture (20 μL of PDE enzyme solution in 50 mM Tris-HCl, pH 8.0, 40 μL of the assay buffer (50 mM Tris-HCl, pH 8.0, 2 mM MgCl2, 0.07% 2-mercaptoethanol, and 0.825 mg/mL bovine serum albumin), and 20 μL of 1 mg/mL snake venom) was added to the 96 well plate. The enzyme reaction was started by adding and mixing with substrate solution of 20 μL containing approximate 35 nM [5′,8-3H]cAMP in 50 mM Tris-HCl, pH 8.0. The final concentration of cAMP in the reaction mixtures was 7 nM. The reaction mixtures were incubated at room temperature for 90 min under dark conditions. After incubation, the reaction was stopped by adding 100 μL of methanol and resultant solutions were applied to filter plate containing Dowex (1×8 200-400) and centrifuged. 50 μL of the eluate together with wash eluate with additional 100 μL methanol was collected in another plate and the radioactivity was measured with 250 μL of scintillant.
# (2) The compounds in the Examples below were tested for PDE inhibition using (Method-A) or (Method-B) described above.
row,IC50 [nM],SMILES
1,4.2,COc1ccc(-c2cc(N3CCN(C)C3=O)nc(/C=C/c3nc(N4CCCC4)c4ccccc4n3)n2)cc1OC [Example 1.013]
2,29,COc1ccc(-c2cc(N3CCCC3)nc(/C=C/c3nc(C)cnc3C)n2)cc1OC [Example 1.057]
3,38,COc1cc(OC)nc(OCc2cc(-c3ccc(OC)c(OC)c3)nc(N3CCCC3)n2)n1 [Example 3.029]
4,35,Cc1nc(OCc2cc(-c3ccco3)nc(N3CCCC3)n2)nc(N(C)C)c1C [Example 3.017]
5,24,CN(C)c1nc(OCc2cc(N3CCCC3)nc(-c3cccnc3)n2)nc2ccccc12 [Example 3.034]
6,46,COc1ccc(-c2cc(N3CCN(C)CC3)nc(/C=C/c3nc(-n4ccnc4)c4ccccc4n3)n2)cc1OC [Example 1.010]
7,31,Cc1cnc(/C=C/c2nc(-c3ccccn3)cc(N3CCCC3)n2)nc1N(C)C [Example 1.071]
8,9.7,COc1ccc(-c2cc(N3CCCC3)nc(/C=C/c3nc(C)nc4c3CCN4C)n2)cc1OC [Example 1.055]
9,0.44,COc1ccc(-c2cc(N3CCn4ccnc4C3)nc(/C=C/c3nc(N(C)C)c4ccccc4n3)n2)cc1OC [Example 1.008]

# Same assay, conditions: Method-B: 96 well plate, 7 nM cAMP, room temperature, 90 min, enzyme from bovine corpus striatum
row,IC50 [nM],SMILES
1,3.3,Cc1nc2ccccc2nc1CCc1nc(C(=O)NC[C@@H]2CCCO2)cc(N2CCCC2)n1 [Example 5.006]
2,1.4,CN(C(=O)c1cc(N2CCCC2)nc(/C=C/c2nc3ccccc3nc2C2CC2)n1)C1CCOCC1 [Example 1.253]
3,0.49,Cc1nc2ccccc2nc1/C=C/c1nc(C(=O)NN2CCCCC2)cc(N2CCCC2)n1 [Example 1.220]
4,0.7,Cc1nc2ccccc2nc1/C=C/c1nc(CNC2CCOCC2)cc(N2CCCC2)n1 [Example 1.268]
5,0.76,Cc1nc2ccccc2nc1/C=C/c1nc(C(=O)N(C2CCOCC2)C2CC2)cc(N2CCCC2)n1 [Example 1.211]
6,0.62,Cc1nc2ccccc2nc1/C=C/c1nc(C(=O)NC2CCOCC2)cc(N2CCCC2)n1 [Example 1.208]
7,20,Cc1nc2ccccc2nc1/C=C/c1nc(C(=O)N(C)C2CCOCC2)cc(N2CCC(O)C2)n1 (stereo not shown) [Example 1.226]
8,0.64,Cc1nc(/C=C/c2nc(OC3CCOCC3)cc(N3CCCC3)n2)nc(N(C)C)c1C [Example 2.053]
9,0.86,Cc1nc2ccccc2nc1/C=C/c1cc(C(=O)NC2CCOCC2)nc(N2CCCC2)n1 [Example 4.001]
10,2.3,CCOc1nc2ccccc2nc1CCc1nc(C(=O)NC2CCOCC2)cc(N2CCCC2)n1 [Example 5.012]
11,0.84,CC(C)=NOc1cc(N2CCCC2)nc(/C=C/c2nc(N(C)C)c3ccccc3n2)n1 [Example 2.039]
12,0.21,CN(C)c1nc(/C=C/c2nc(OC[C@@H]3CCC(=O)N3)cc(N3CCCC3)n2)nc2ccccc12 [Example 2.048]
13,0.6,CN(C)c1nc(/C=C/c2nc(C(=O)NN3CCCCC3)cc(N3CCCC3)n2)nc2ccccc12 [Example 1.159]
14,0.89,CN(C)c1nc(/C=C/c2nc(OC3CCCCC3)cc(N3CCCC3)n2)nc2ccccc12 [Example 2.035]
15,2.5,Cc1cc2ccccc2nc1/C=C/c1nc(C(=O)NC2CCOCC2)cc(N2CCCC2)n1 [Example 1.260]
